Assay results as given in ChEMBL document CHEMBL1124074, “Bile acids with a cyclopropyl-containing side chain. 3. Separation, identification, and properties of all four stereoisomers of 3 alpha,7 beta-dihydroxy-22,23-methylene-5 beta-cholan-24-oic acid” (J Med Chem, 1988).

Assays:
[1] = Critical micellar concentration was measured in water by the dye solubilization method; assay type: ADME; settings: buffer
[2] = pKa value was evaluated; assay type: physicochemical

Row | Compound | CMC [1] [mM] | pKa [2]
1 | C[C@H]([C@@H]1C[C@@H]1C(=O)O)[C@H]1CC[C@H]2[C@@H]3[C@@H](O)CC4C[C@H](O)CC[C@]4(C)[C@H]3CC[C@]12C (some centres undefined) | 14 | 5.02
2 | C[C@H]([C@H]1C[C@H]1C(=O)O)[C@H]1CC[C@H]2[C@@H]3[C@@H](O)CC4C[C@H](O)CC[C@]4(C)[C@H]3CC[C@]12C (some centres undefined) | 10 | 5.04
3 | CC(C1CC[C@H]2[C@@H]3[C@@H](O)CC4C[C@H](O)CCC4(C)[C@H]3CCC12C)[C@@H]1C[C@@H]1C(=O)O (some centres undefined) | 25 | 5.04
4 | CC(C1CC[C@H]2[C@@H]3[C@@H](O)CC4C[C@H](O)CCC4(C)[C@H]3CCC12C)[C@H]1C[C@H]1C(=O)O (some centres undefined) | 20 | 5.05
5 | C[C@H](CCC(=O)O)[C@H]1CC[C@H]2[C@@H]3[C@@H](O)C[C@@H]4C[C@H](O)CC[C@]4(C)[C@H]3CC[C@]12C [URSODIOL] | 19 | 
